Data from US9683019B2, “Cyclic polypeptides for the treatment of heart failure” (priority 2013, dated 2017).
Where a SMILES comes first, the peptide text is derived from it. Bridges are numbered along the chain shown (N, C = ends). [ ]: non-standard residue; d: D form. NMeF = CN[C@@H](Cc1ccccc1)C(=O)O; pGlu = O=C1CC[C@@H](C(=O)O)N1; hCys = N[C@@H](CCS)C(=O)O; Nle = CCCC[C@H](N)C(=O)O

Experiments:
[1] = target: T1, hAPJ (Homo sapiens, UniProt P35414); assay: hAPJ Calcium Flux Assay; format: cell-based; conditions: Chem-5 APJ stable cells, calcium flux stimulation; read-out: hAPJ Ca2+ Flux EC50
T1 sequence (P35414 1-380): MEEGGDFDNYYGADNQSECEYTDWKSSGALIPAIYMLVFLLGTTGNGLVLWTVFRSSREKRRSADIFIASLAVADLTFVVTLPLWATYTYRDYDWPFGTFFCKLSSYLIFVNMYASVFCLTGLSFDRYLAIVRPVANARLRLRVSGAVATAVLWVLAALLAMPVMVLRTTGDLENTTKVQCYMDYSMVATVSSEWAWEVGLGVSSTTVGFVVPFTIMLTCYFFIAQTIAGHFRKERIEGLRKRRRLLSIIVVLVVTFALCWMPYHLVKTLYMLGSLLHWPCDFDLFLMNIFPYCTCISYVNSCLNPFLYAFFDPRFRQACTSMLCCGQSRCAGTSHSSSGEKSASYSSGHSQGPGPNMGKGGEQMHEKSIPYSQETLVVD
Description: Chem-5 APJ stable cells (Millipore # HTS068C) were plated in 384-well format with 10,000 cells/well in 25 ul growth media, then grown 24 hours in a 37° C. tissue culture incubator. One hour before the assay, 25 ul/well FLIPR Calcium 4 dye (Molecular Devices R8142) with 2.5 mM probenecid was added, and cells were incubated one hour in a 37° C. tissue culture incubator. Peptides were solubilized in HBSS, HEPES & 0.1% BSA buffer, and serially-diluted 10-fold, from 50 uM to 5 pM, in triplicate. FLIPR Tetra was used to add peptide to the cells with dye (1:5, for final peptide concentrations ranging from 10 uM to 1 pM). FLIPR dye inside the cells emitted fluorescence after binding to calcium, while fluorescence from outside the cells was masked. […] Readings were done for 3 minutes total, beginning 10 seconds before the peptide addition. Maximum-minimum values were calculated and plotted for each peptide concentration, and GraphPad prism software was used to calculate EC50 values at the curve inflection points, for calcium flux stimulation by peptides.

[2] = Surrogate Activity-Based Plasma Stability Assay; format: in vitro ADME; conditions: rat
Description: Surrogate Activity-Based Plasma Stability Assay:
2) Calculate slope of value above and […]

[3] = Plasma Stability Assay (LC-MS); format: in vitro ADME; conditions: male, Sprague-Dawley, heparinized rat plasma, 37° C., read-out: Plasma stability t½
Description: Plasma Stability Assay: Materials: Working solution: 1 mg/mL test article is prepared in Milli-Q water Extraction solution: Methanol:Acetonitrile:Water (1:1:1) with 0.1% Formic Acid and 400 ng/mL Glyburide. Plasma: Male Sprague-Dawley rat plasma (with sodium heparin), purchased from Bioreclamation LLC (Liverpool, N.Y.). Test article was prepared in one of the following biological matrices: heparinized rat plasma, heparinized rat whole blood or lung homogenate. […] Lung homogenate samples were prepared by diluting lung homogenate to 1 mg/ml protein concentration with phosphate buffered saline (PBS), followed by addition of 5 uL Working solution to 995 uL diluted lung homogenate. The samples were incubated at 37° C. with gentle shaking (65˜75 rpm) in a water bath incubator. […] Afterwards, a pipetting device (Tecan Temo) was used to transfer the supernatants to another plate and add 50 uL of water to all samples. The plate was vortexed prior to LC-MS analysis. […] The samples are incubated at 37° C. with gentle shaking (65˜75 rpm) in a water bath incubator. […] The reaction mixture is incubated at 37° C. for 1 hour. After completion of reaction, protein precipitation is performed using 300 uL of acetonitrile. […] Afterwards, a pipetting device (Tecan Temo) is used to transfer 125 uL supernatants to another plate and adds 50 uL of water to all samples. […]

SMILES	EC50 [1] [nM]	half-life [2] [min]	Surrogate Activity based Plasma stability t½ [2] [min]	half-life [3] [min]
CCCC[C@H](NC(=O)[C@@H]1CCCN1C(=O)CNC(=O)[C@H](CCCCN)NC(=O)[C@@H]1CCSSC[C@H](NC(C)=O)C(=O)N[C@@H](CCCNC(=N)N)C(=O)N2CCC[C@H]2C(=O)N[C@@H](CCCNC(=N)N)C(=O)N[C@@H](CC(C)C)C(=O)N[C@@H](CO)C(=O)N1)C(=O)N1CCC[C@H]1C(=O)N[C@@H](Cc1ccccc1)C(=O)O [Example 6, Ac-C*-R-P-R-L-S-hC*-K-G-P-Nle-P-F-OH] (Ac-CRPRLS[hCys]KGP[Nle]PF-OH; disulfide 1-7)	21.4	5	–	–
CCCC[C@H](NC(=O)[C@@H]1CCCN1C(=O)CNC(=O)[C@H](CCCCN)NC(=O)[C@@H]1CSSC[C@@H](NC(C)=O)C(=O)N[C@@H](CCCNC(=N)N)C(=O)N2CCC[C@H]2C(=O)N[C@@H](CCCNC(=N)N)C(=O)N[C@@H](CC(C)C)C(=O)N[C@@H](CO)C(=O)N1)C(=O)N1CCC[C@H]1C(=O)N[C@@H](Cc1ccccc1)C(=O)O [Example 12, Ac-c*-R-P-R-L-S-C*-K-G-P-Nle-P-F-OH] (Ac-[dC]RPRLSCKGP[Nle]PF-OH; disulfide 1-7)	21.4	10	–	–
CCCC[C@H](NC(=O)[C@@H]1CCCN1C(=O)CNC(=O)[C@H](CCCCN)NC(=O)[C@H]1CSSC[C@H](NC(C)=O)C(=O)N[C@@H](CCCNC(=N)N)C(=O)N2CCC[C@H]2C(=O)N[C@@H](CCCNC(=N)N)C(=O)N[C@@H](CC(C)C)C(=O)N[C@@H](CO)C(=O)N1)C(=O)N1CCC[C@H]1C(=O)N[C@@H](Cc1ccccc1)C(=O)O [Example 15, Ac-C*-R-P-R-L-S-c*-K-G-P-Nle-P-F-OH] (Ac-CRPRLS[dC]KGP[Nle]PF-OH; disulfide 1-7)	193	17.7	–	–
CCCC[C@@H](NC(=O)[C@@H]1CCCN1C(=O)CNC(=O)[C@H](CCCCN)NC(=O)[C@@H]1CSSC[C@H](NC(=O)[C@@H]2CCCN2C(=O)[C@H](CCCNC(=N)N)NC(=O)[C@@H]2CCC(=O)N2)C(=O)N[C@@H](CC(C)C)C(=O)N[C@@H](CO)C(=O)N1)C(=O)NCCc1ccccc1 [Example 32, pE-R-P-C*-L-S-C*-K-G-P-(D-Nle)-NH(Phenethyl)]	–	> 1000	>1000	377
CC(C)C[C@@H]1NC(=O)[C@@H](NC(=O)[C@@H]2CCCN2C(=O)[C@H](CCCNC(=N)N)NC(=O)[C@@H]2CCC(=O)N2)CCSSC[C@@H](C(=O)N[C@@H](CCCCN)C(=O)NCC(=O)N2CCC[C@H]2C(=O)N[C@H](Cc2ccccc2)C(=O)N[C@H](C)C(=O)N[C@H](Cc2ccccc2)C(=O)O)NC(=O)[C@H](CO)NC1=O [Example 36, pE-R-P-hC*-L-S-C*-K-G-P-f-a-f-OH] ([pGlu]RP[hCys]LSCKGP[dF][dA][dF]-OH; disulfide 4-7)	4.2	34	–	–
CCCC[C@H](NC(=O)[C@@H]1CCCN1C(=O)CNC(=O)[C@H](CCCCN)NC(=O)[C@@H]1CSSC[C@H](NC(=O)[C@@H]2CCCN2C(=O)[C@H](CCCNC(=N)N)NC(=O)[C@@H]2CCC(=O)N2)C(=O)N[C@@H](CC(C)C)C(=O)N[C@@H](CO)C(=O)N1)C(=O)N1CCC[C@H]1C(=O)N(C)[C@@H](Cc1ccccc1)C(=O)O [Example 29, pE-R-P-C*-L-S-C*-K-G-P-Nle-P-(N-Me)F-OH] ([pGlu]RPCLSCKGP[Nle]P[NMeF]-OH; disulfide 4-7)	4.2	705	–	–
